# Measured values from PubChem BioAssay AID1963971 (Molecular Pharmacology Branch, DTP, NCI, 2024).
# Tested on: 953936-095-R-J2-PDC spheroids with HUVEC/MSC, viability
# Assay: Anticancer human tumor 953936-095-R-J2-PDC patient-derived cervical squamous cell carcinoma cell line growth inhibition [PI3K]
# Settings: for IC50: curve of first compound; for viability, T/C: stronger effect = lower value
# Summary of the method: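 Agents were dosed from a top concentration near clinical Cmax (otherwise 10 microM) in half-log decrements, alone or combined with PI3K inhibitors. The spheroids contain tumor cells plus endothelial (HUVEC) and MSC stroma; viability is measured.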
# [1] = second compound 0.0316 µM, first compound 0.0316 µM
# [2] = second compound 0.0316 µM, first compound 0.1 µM
# [3] = second compound 0.1 µM, first compound 0.0316 µM
# [4] = second compound 0.1 µM, first compound 0.1 µM
# [5] = second compound 0.316 µM, first compound 0.0316 µM
# [6] = second compound 0.316 µM, first compound 0.1 µM
# [7] = second compound 1 µM, first compound 0.0316 µM
# [8] = second compound 1 µM, first compound 0.1 µM
# [9] = second compound 3.16 µM, first compound 0.0316 µM
# [10] = second compound 3.16 µM, first compound 0.1 µM
# [11] = second compound 10 µM, first compound 0.0316 µM
# [12] = second compound 10 µM, first compound 0.1 µM
# 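Further: spheroids exposed to compounds for seven days before read-out.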
structure (smiles),measurement,setting,value
CC(=O)c1c(C)c2cnc(Nc3ccc(N4CCNCC4)cn3)nc2n(C2CCCC2)c1=O + Cc1nc(NC(=O)N2CCCC2C(N)=O)sc1-c1ccnc(C(C)(C)C(F)(F)F)c1,IC50,second compound 0.0316 µM,> 100 nM
same,IC50,second compound 0.1 µM,> 100 nM
same,IC50,second compound 0.316 µM,> 100 nM
same,IC50,second compound 1 µM,< 0.316 nM
same,IC50,second compound 3.16 µM,< 0.316 nM
same,IC50,second compound 10 µM,< 0.316 nM
same,"viability, T/C","second compound 0.0316 µM, first compound 0.000316 µM",88.8%
same,"viability, T/C","second compound 0.0316 µM, first compound 0.001 µM",92.6%
same,"viability, T/C","second compound 0.0316 µM, first compound 0.00316 µM",88.5%
same,"viability, T/C","second compound 0.0316 µM, first compound 0.01 µM",91%
same,"viability, T/C",[1],103%
same,"viability, T/C",[2],89.5%
same,"viability, T/C","second compound 0.1 µM, first compound 0.000316 µM",75.6%
same,"viability, T/C","second compound 0.1 µM, first compound 0.001 µM",82.3%
same,"viability, T/C","second compound 0.1 µM, first compound 0.00316 µM",85.6%
same,"viability, T/C","second compound 0.1 µM, first compound 0.01 µM",74.1%
same,"viability, T/C",[3],88%
same,"viability, T/C",[4],75.9%
same,"viability, T/C","second compound 0.316 µM, first compound 0.000316 µM",57.8%
same,"viability, T/C","second compound 0.316 µM, first compound 0.001 µM",69.5%
same,"viability, T/C","second compound 0.316 µM, first compound 0.00316 µM",61%
same,"viability, T/C","second compound 0.316 µM, first compound 0.01 µM",60.7%
same,"viability, T/C",[5],70.2%
same,"viability, T/C",[6],59.3%
same,"viability, T/C","second compound 1 µM, first compound 0.000316 µM",46.1%
same,"viability, T/C","second compound 1 µM, first compound 0.001 µM",46.3%
same,"viability, T/C","second compound 1 µM, first compound 0.00316 µM",44.4%
same,"viability, T/C","second compound 1 µM, first compound 0.01 µM",44.1%
same,"viability, T/C",[7],45.3%
same,"viability, T/C",[8],43.5%
same,"viability, T/C","second compound 3.16 µM, first compound 0.000316 µM",25.4%
same,"viability, T/C","second compound 3.16 µM, first compound 0.001 µM",25.3%
same,"viability, T/C","second compound 3.16 µM, first compound 0.00316 µM",27.3%
same,"viability, T/C","second compound 3.16 µM, first compound 0.01 µM",24.9%
same,"viability, T/C",[9],28.3%
same,"viability, T/C",[10],24.7%
same,"viability, T/C","second compound 10 µM, first compound 0.000316 µM",11.3%
same,"viability, T/C","second compound 10 µM, first compound 0.001 µM",10.9%
same,"viability, T/C","second compound 10 µM, first compound 0.00316 µM",10.2%
same,"viability, T/C","second compound 10 µM, first compound 0.01 µM",10.2%
same,"viability, T/C",[11],11.4%
same,"viability, T/C",[12],11.7%
CNC(=O)c1ccc(N2C(=S)N(c3ccc(C#N)c(C(F)(F)F)c3)C(=O)C2(C)C)cc1F + Cc1nc(NC(=O)N2CCCC2C(N)=O)sc1-c1ccnc(C(C)(C)C(F)(F)F)c1,IC50,second compound 0.0316 µM,> 10000 nM
same,IC50,second compound 0.1 µM,> 10000 nM
same,IC50,second compound 0.316 µM,> 10000 nM
same,IC50,second compound 1 µM,53 nM
same,IC50,second compound 3.16 µM,< 31.6 nM
same,IC50,second compound 10 µM,< 31.6 nM
same,"viability, T/C",[1],85.4%
same,"viability, T/C",[2],92.7%
same,"viability, T/C","second compound 0.0316 µM, first compound 0.316 µM",108%
same,"viability, T/C","second compound 0.0316 µM, first compound 1 µM",105%
same,"viability, T/C","second compound 0.0316 µM, first compound 3.16 µM",83.5%
same,"viability, T/C","second compound 0.0316 µM, first compound 10 µM",79.7%
same,"viability, T/C",[3],81.2%
same,"viability, T/C",[4],93%
same,"viability, T/C","second compound 0.1 µM, first compound 0.316 µM",78.3%
same,"viability, T/C","second compound 0.1 µM, first compound 1 µM",76.9%
same,"viability, T/C","second compound 0.1 µM, first compound 3.16 µM",74.7%
same,"viability, T/C","second compound 0.1 µM, first compound 10 µM",73.9%
same,"viability, T/C",[5],64.1%
same,"viability, T/C",[6],65.9%
same,"viability, T/C","second compound 0.316 µM, first compound 0.316 µM",65.3%
same,"viability, T/C","second compound 0.316 µM, first compound 1 µM",59.9%
same,"viability, T/C","second compound 0.316 µM, first compound 3.16 µM",62.8%
same,"viability, T/C","second compound 0.316 µM, first compound 10 µM",54.3%
same,"viability, T/C",[7],54.1%
same,"viability, T/C",[8],44.2%
same,"viability, T/C","second compound 1 µM, first compound 0.316 µM",44.3%
same,"viability, T/C","second compound 1 µM, first compound 1 µM",48.6%
same,"viability, T/C","second compound 1 µM, first compound 3.16 µM",41.4%
same,"viability, T/C","second compound 1 µM, first compound 10 µM",38.1%
same,"viability, T/C",[9],26.6%
same,"viability, T/C",[10],29.8%
same,"viability, T/C","second compound 3.16 µM, first compound 0.316 µM",24.4%
same,"viability, T/C","second compound 3.16 µM, first compound 1 µM",25.5%
same,"viability, T/C","second compound 3.16 µM, first compound 3.16 µM",30%
same,"viability, T/C","second compound 3.16 µM, first compound 10 µM",24.8%
same,"viability, T/C",[11],12.2%
same,"viability, T/C",[12],11.2%
same,"viability, T/C","second compound 10 µM, first compound 0.316 µM",12.1%
same,"viability, T/C","second compound 10 µM, first compound 1 µM",11%
same,"viability, T/C","second compound 10 µM, first compound 3.16 µM",11.6%
same,"viability, T/C","second compound 10 µM, first compound 10 µM",10.7%
Cn1cnc2c(F)c(Nc3ccc(Br)cc3Cl)c(C(=O)NOCCO)cc21 + Cc1nc(NC(=O)N2CCCC2C(N)=O)sc1-c1ccnc(C(C)(C)C(F)(F)F)c1,IC50,second compound 0.0316 µM,748 nM
same,IC50,second compound 0.1 µM,308 nM
same,IC50,second compound 0.316 µM,36.8 nM
same,IC50,second compound 1 µM,< 9.49 nM
same,IC50,second compound 3.16 µM,< 9.49 nM
same,IC50,second compound 10 µM,< 9.49 nM
same,"viability, T/C","second compound 0.0316 µM, first compound 0.00949 µM",85.7%
same,"viability, T/C","second compound 0.0316 µM, first compound 0.03 µM",87.1%
same,"viability, T/C","second compound 0.0316 µM, first compound 0.0949 µM",74.3%
same,"viability, T/C","second compound 0.0316 µM, first compound 0.3 µM",59.4%
same,"viability, T/C","second compound 0.0316 µM, first compound 0.949 µM",49.5%
same,"viability, T/C","second compound 0.0316 µM, first compound 3 µM",31.9%
same,"viability, T/C","second compound 0.1 µM, first compound 0.00949 µM",78.1%
same,"viability, T/C","second compound 0.1 µM, first compound 0.03 µM",70.1%
same,"viability, T/C","second compound 0.1 µM, first compound 0.0949 µM",52.7%
same,"viability, T/C","second compound 0.1 µM, first compound 0.3 µM",51.4%
same,"viability, T/C","second compound 0.1 µM, first compound 0.949 µM",47.4%
same,"viability, T/C","second compound 0.1 µM, first compound 3 µM",28.9%
same,"viability, T/C","second compound 0.316 µM, first compound 0.00949 µM",61.3%
same,"viability, T/C","second compound 0.316 µM, first compound 0.03 µM",50.8%
same,"viability, T/C","second compound 0.316 µM, first compound 0.0949 µM",43%
same,"viability, T/C","second compound 0.316 µM, first compound 0.3 µM",33.9%
same,"viability, T/C","second compound 0.316 µM, first compound 0.949 µM",26.1%
same,"viability, T/C","second compound 0.316 µM, first compound 3 µM",20.1%
same,"viability, T/C","second compound 1 µM, first compound 0.00949 µM",44%
same,"viability, T/C","second compound 1 µM, first compound 0.03 µM",35%
same,"viability, T/C","second compound 1 µM, first compound 0.0949 µM",24.9%
same,"viability, T/C","second compound 1 µM, first compound 0.3 µM",24.3%
same,"viability, T/C","second compound 1 µM, first compound 0.949 µM",12.1%
same,"viability, T/C","second compound 1 µM, first compound 3 µM",7.18%
same,"viability, T/C","second compound 3.16 µM, first compound 0.00949 µM",21.1%
same,"viability, T/C","second compound 3.16 µM, first compound 0.03 µM",15.3%
same,"viability, T/C","second compound 3.16 µM, first compound 0.0949 µM",11.3%
same,"viability, T/C","second compound 3.16 µM, first compound 0.3 µM",7.62%
same,"viability, T/C","second compound 3.16 µM, first compound 0.949 µM",5.36%
same,"viability, T/C","second compound 3.16 µM, first compound 3 µM",1.67%
same,"viability, T/C","second compound 10 µM, first compound 0.00949 µM",6.2%
same,"viability, T/C","second compound 10 µM, first compound 0.03 µM",5.44%
same,"viability, T/C","second compound 10 µM, first compound 0.0949 µM",4.18%
same,"viability, T/C","second compound 10 µM, first compound 0.3 µM",2.71%
same,"viability, T/C","second compound 10 µM, first compound 0.949 µM",1.25%
same,"viability, T/C","second compound 10 µM, first compound 3 µM",0.42%
